Assays:
[1] = system: reverse transcription of the infected virus; test: Viral reverse transcription product (viral cDNA) in infected A3.01 cells, RT-qPCR; format: cell-based, HIV-1; details: 1.5 µM, 16 h after infection
Description: Fig 5 (A) Time-of-addition assay. […] Subsequently, the cells were treated with the compounds at the indicated time points (0, 1, 2, 4, 6, 8, 10, 12, 24, 30, 36, 42, and 48 h) after HIV-1 infection. The final concentrations of compounds are described in Materials and Methods. Viral activity according to the timing of drug addition was measured as F-Luc activity at 54 h after infection. The relative activities are represented as the mean ± SD (n = 3) compared with the activity observed 54 h post-infection. The relative time frames associated with each HIV-1 infection step are defined based on the time frame of susceptibility to the drug that blocks that particular infection step. […] At 16 h after infection, the viral reverse transcription (RT) product (viral cDNA) level was determined by quantitative real-time PCR (RT-qPCR) using gag and 18S rRNA primer sets and represented as the mean ± SD (n = 3) normalized against the amount of the 18S rRNA compared with the DMSO control. **P < 0.01 compared with the vehicle (DMSO). […] At 40 h after infection, cellular chromosomal DNA was purified, and the integrated proviral DNA was detected through nested Alu-PCR amplification.
The activity of HIV-1 RT was determined as previously described with some minor modifications ([66][–][68]). […] The relative levels of RT products were analyzed using the ΔΔCt-method, as described above. […]

[2] = system: Tat protein; test: Nuclear localization of Tat protein, cell fractionation and western blotting; format: cell-based, HIV-1; details: 1.5 μM, transfected cells
[3] = molecular target: T1, interaction between Tat and cyclin T1 (Human immunodeficiency virus type 1 group M subtype B, UniProt P04608); test: Co-immunoprecipitation of Tat and cyclin T1; format: cell-based; details: co-immunoprecipitation in transfected cells
T1 construct: expressed in transfected cells; the methods paragraph b60 says 293T
T1 sequence (P04608 whole entry): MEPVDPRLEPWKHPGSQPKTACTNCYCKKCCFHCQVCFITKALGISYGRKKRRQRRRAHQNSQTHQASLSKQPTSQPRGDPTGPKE
Description: The co-immunoprecipitation assay was performed as previously described ([12], [58]). Briefly, 293T cells were transfected with Tat-expressing plasmids (pcDNA3–Flag–Tat86) using Lipofectamine 2000 (Invitrogen). After 48 h, the cells were lysed in an immunoprecipitation buffer [250 mM NaCl, 0.5% NP-40, 50 mM Tris-HCl (pH 7.5), 5 mM ethylenediaminetetraacetic acid, and protease/phosphatase inhibitor cocktail]. The cell lysates were subsequently incubated with an anti-Flag monoclonal antibody (M2; Sigma-Aldrich) at 4°C. After overnight incubation, the immune complex was then pulled down with protein A/G-agarose beads (Santa Cruz Biotechnology) and analyzed using western blotting.
Supplementary Figure S6. A. Quantitativereal-timePCRofHIV-1mRNAfromHIV-1 NL4-3-infectedA3.01cells treated oruntreatedwiththeindicatedcompoundswasperformedusingthe envprimerset,andlevelswerenormalizedtothoseof gapdh. Thedata
represent the relative fold change compared with DMSO treatment (n = 3).B. Effect of the compounds on NF-κB promoter activity assessed using a luciferase assay. […]
pCMV-R-Luc (200 ng). […] Theluciferase activity was determined using aDual-GloTMLuciferase assaykit (Promega).
The data normalized to the R-Luc activity are expressed as themean±SD (n = 3) of the relative fold activitycompared with the no-PMA(vehicle) treatment.C. […]

## Cc1[nH]c2ccc(-c3nnc(SCC(=O)N4CCCC4)o3)cc2c1C [Compound 13, 2-((5-(2,3-Dimethyl-1H-indol-5-yl)-1,3,4-oxadiazol-2-yl)thio)-1-(pyrrolidin-1-yl)ethan-1-one]
[1]
  inhibitory effect on reverse transcription of the infected virus: did not exhibit the inhibitory effect
[2]
  change in nuclear localization of the Tat protein: no changes were observed
[3]
  change in interaction between Tat and cyclin T1: no changes were observed

## Cc1[nH]c2ccc(-c3nnc(SCC(=O)N4CCCCC4)o3)cc2c1C [Compound 9, 2-((5-(2,3-Dimethyl-1H-indol-5-yl)-1,3,4-oxadiazol-2-yl)thio)-1-(piperidin-1-yl)ethan-1-one]
[1]
  inhibitory effect on reverse transcription of the infected virus: did not exhibit the inhibitory effect
[2]
  change in nuclear localization of the Tat protein: no changes were observed
[3]
  change in interaction between Tat and cyclin T1: no changes were observed
